The values that follow are results of earlier work, collected in patent US11517522B2, “Aprepitant ready-to-use injection emulsion compositions” (priority 2020, dated 2022).

For data set [1] the following is noted: IV infusion.
Data set [2] concerns acute and delayed chemotherapy-induced nausea and vomiting. Particulars: versus aprepitant.
The conditions of data set [3]: given orally; commercial nanoparticulate composition (Emend).

As to `C[C@@H](O[C@H]1OCCN(Cc2nc(O)n(P(=O)(O)O)n2)[C@H]1c1ccc(F)cc1)c1cc(C(F)(F)F)cc(C(F)(F)F)c1` [Fosaprepitant, fosaprepitant dimeglumine], in data set [1], the “time for conversion to aprepitant” value is reported as “less than 30 minutes”. Besides, the “comparison with aprepitant in prevention and control of acute and delayed chemotherapy-induced nausea and vomiting” value in data set [2] is “non-inferiority and bioequivalency”.

With `C[C@@H](O[C@H]1OCCN(Cc2n[nH]c(=O)[nH]2)[C@H]1c1ccc(F)cc1)c1cc(C(F)(F)F)cc(C(F)(F)F)c1` [Aprepitant, 5-([(2R, 3S)-2-((R)-1-[3,5-bis (trifluoromethyl)phenyl]ethoxy)-3-(4-fluoro-phenyl)morpholino]methyl)-1H-1,2,4-triazol-3(2H)-one], the bioavailability in data set [3] is 60-65%. Moreover, the solubility in acetonitrile result (acetonitrile) is reported as “slightly soluble”. Besides, the solubility in ethanol entry (ethanol) is reported as “sparingly soluble”. Also, the “solubility in isopropyl acetate” value (isopropyl acetate) is “sparingly soluble”. In addition, the solubility in water result (water) was “practically insoluble”.
